Reference: paper PMC2802337 (Prostaglandins, leukotrienes, and essential fatty acids, 2009)

Target: T1, 15-prostaglandin dehydrogenase/eicosanoid oxidoreductase (EOR) (Homo sapiens, UniProt P15428)
T1 sequence (P15428 1-266): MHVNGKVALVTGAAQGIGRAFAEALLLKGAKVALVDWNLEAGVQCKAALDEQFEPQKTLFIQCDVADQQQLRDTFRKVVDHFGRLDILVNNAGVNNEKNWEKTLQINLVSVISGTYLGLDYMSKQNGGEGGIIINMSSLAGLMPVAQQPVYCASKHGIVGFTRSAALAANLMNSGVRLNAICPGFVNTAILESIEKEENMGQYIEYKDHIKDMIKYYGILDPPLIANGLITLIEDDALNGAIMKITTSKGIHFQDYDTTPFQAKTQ
Experiment: spectrophotometric NADH formation at […] nm, initial rate of conversion
Type: biochemical

## CCCCC[C@H](O)/C=C/C=C\C=C\C=C\[C@@H](O)[C@@H](O)CCCC(=O)O [LXA4]
  spectrophotometric NADH formation at 340 nm, initial rate of conversion: 3.1 µM/min
